Measured values reported in patent publication US20240197666A1, “DITERPENOID COMPOUNDS THAT ACT ON PROTEIN KINASE C (PKC)” (K-Gen Therapeutics, Inc., priority 2021, published 2024).
Like-named read-outs stand apart in the source and are kept apart here.

How the values were obtained:
[1] = tested on: phosphorylation of PKCμ, PKCδ and Erk1/2 in A549 lung cancer cells; assay: Western blot of activation of PKC and downstream target protein in A549 cells; format: cell-based; settings: 30 minutes
Method: According to the methods described in patent (WO/2017/083783) A549 lung cancer cells (˜3 million cells) were seeded in 10 cm tissue culture dishes (or ˜1 million cells in 6 cm dish) and grown overnight. Cells were then treated with different drugs at indicated concentrations for 30 minutes. Cell lysate preparation, protein quantitation, SDS-PAGE, and Western blotting procedures are described (WO/2017/083783). β-actin or Vinculin was used as loading controls. Imagequant LAS4000 (GE) was used to scan membranes if secondary antibodies anti-mouse IgG HRP conjugate or anti-rabbit IgG HRP conjugate (dilutions from 1:2000-1:10000) were used. For ProteinSimple Wes system, manufacture's procedure was followed (ProteinSimple 12-230 kDa Wes Separation Module) for sample preparation, loading, running, and data analysis.
Phosphorylation of these sites has been linked to acute activation or catalytic activity of the PKC isoforms and Erk1/2. High level of phosphorylation indicates strong activation.
A subset of the diterpenoid compounds with good binding affinity to novel PKC isoforms and PKCμ was tested at two different concentrations in A549 cells to assess activation of PKCμ, PKCδ, and Erk1/2 by Western blot analysis. In addition to the phospho-specific antibodies described above, an additional phospho-specific antibody P-PKCδ (S299) (Abcam cat #133456) was also used. This antibody has been shown in the literature (Durgan et al., FEBS Lett. 2007, 581(18):3377-81, Novel phosphorylation site markers of protein kinase C delta activation) to be able to detect activation of PKCδ. K-101 (prostratin, 1 μM) was included as reference compounds.

A549 cell line = assay: Proliferation of A549 (CellTiter Glo); format: cell-based; settings: Homo sapiens, read-out: IC50 μM (A549 Cell Line)
Procedure, shortened: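 A549 cells (K-Ras-mutant NSCLC) were seeded at 1,000 cells/well, allowed 24 h to settle, then exposed for 96 h to 3-fold serially diluted compound (final DMSO ≤0.25%). CellTiter Glo luminescence was read, and inhibition was calculated relative to DMSO-only wells. IC50, relative IC50 and % top inhibition came from curve fitting.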

Mino (Lymphoma) = assay: Proliferation of Mino; format: cell-based; settings: for IC50: Homo sapiens, MINO, read-out: IC50 Mino (Lymphoma)
Procedure, shortened: (§1)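 Cells seeded per line (KP-4 800-1000, Panc2.13 3000, Namalwa and Mino 5000-10000 cells/well), 24 h at 37° C, then 96 h with 3-fold serial dilutions of compound, final DMSO ≤0.25%. CellTiter Glo luminescence read; % inhibition vs DMSO-only max, IC50 fitted. Potency also normalized as ratio to comparator K101 across batches.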

PANC1 cells = assay: Sphere formation assay; format: cell-based; settings: Homo sapiens, PANC-1, read-out: concentration exhibiting at least 50% inhibition on the sphere forming efficiency
Method: A group of diterpenoid compounds of the present disclosure were tested to assess their effects on blocking formation of spheres from cancer cell lines such as PANC1, a K-Ras mutant pancreatic cell line. Briefly, PANC1 cells were harvested, re-suspended as single cell suspensions, counted and seeded into Ultra Low Attachment Culture 96-well plate (Corning, Cat #3474) at 100 cells/well in 100 μl of complete media (with 10% FBS) containing 2% Matrigel (Corning, Cat #354234) and DMSO or compounds. Six replicates per condition were seeded. The seeded cells were placed in the 37° C. tissue culture incubator. 10 μl of low serum containing media (with 0.1% FBS) was added to each well every week. Spheres formed after 3-4 weeks were counted. Sphere forming efficiency was expressed as percentage of # of spheres/ # of cells seeded.

KP-4 (Pancreatic) = assay: Proliferation of KP-4; format: cell-based; settings: read-out: IC50 KP-4 (Pancreatic)
Method: (§2) The diterpenoid compounds were tested in A549, a non-small cell lung cancer cell line harboring a K-Ras activating mutation. Briefly, A549 cells at a density of 1,000 cells/well were seeded in 96-well plates and incubated at 37° C. for 24 hours. A series of different concentrations of compound stocks (500×) were prepared by 3-fold serial dilution in DMSO. These compounds were further diluted in culture media and then added to cells so that the final DMSO concentration was not exceeding 0.25%. After 96 hours of incubation, 50 μL of CellTiter Glo reagent (Promega) was added to each well and luminescence was measured after 10 minutes using EnVision (PerkinElmer). Luminescence from cells treated with DMSO alone was set as Max and % of inhibition was calculated as follows: Inhibition %=(Max-Sample value)/Max×100. Data was analyzed using XL-fit software (ID Business Solutions Ltd.) and IC50, relative IC50, and % of top inhibition was calculated. Some of the compounds in this disclosure were very potent in blocking proliferation of A549 lung cancer cells at low nM range. In addition, potency of inhibiting A549 proliferation correlated well with its binding affinity to PKCs for this series of compounds. In other words, higher affinity binders had stronger inhibitory effects on A549 proliferation. This further support the notion that activation, rather than inhibition, of certain PKC isoforms is required to block proliferation of cancer cells, some of which may harbor K-Ras mutations. This is in sharp contrast to previous literature and common belief that inhibition of PKC is necessary to block cancer cell growth (Kang, 2014, New Journal of Science, 2014:1-36). Data presented here is in agreement with recent findings that many loss-of-function but not gain-of-function mutations of PKC isoforms have been identified in many human cancers (Antal et al., 2015, Cell, 160:489-502).
(§3) The compounds in this disclosure were tested for their potency in blocking proliferation of a few other cancer cells lines, including K-Ras mutant pancreatic cell lines Panc2.13 and KP-4, leukemia cell line HL-60, and lymphoma cell lines Namalwa and Mino. Similar procedures as in Example 67 were followed. Initial cell numbers seeded in 96-well plates were different for different cell lines: 3000 cells/well for Panc2.13; 800-1000 cells/well for KP-4; 5000 cells/well for HL-60; 5000-10000 cells/well for Namalwa and Mino. A ratio of (IC50 of K101)/(IC50 of compound) (data in parenthesis in Table 5) was used to normalize the compound potency from different assay batches to a common comparator K101.

[2] = tested on: NFκB-driven transcription in HeLa-NFκB luciferase reporter cell line; assay: NFκB luciferase reporter assay; settings: Homo sapiens, HeLa, 16 h, read-out: NFκB-luc HeLa cells EC50 (μM)
Method: A HeLa-NFκB luciferase reporter cell line (Wuxi Biology) was used to assess a group of PKC activator compounds for their ability to activate NFκB-driven transcription. […] One set of cells was assayed for luciferase activity (Promega, Cat #E1500) and the other set was assayed to determine the number of viable cells (for cell number normalization) using CellTiter-Glo (CTG) kit (Promega, Cat #G7570) according to manufacture's procedures. Normalized data (luciferase value/CTG value) were analyzed using GraphPad Prism5 to calculate EC50 for each compound (see Table 8).
To assess if activation of PKC is required for these compounds to activate NFκB, several PKC inhibitors including broad-spectrum and conventional PKC inhibitors were tested. In the assay described above, PKC inhibitors were added at the same time as the PKC activator compounds.

Namalwa (Lymphoma) = assay: Proliferation of Namalwa; format: cell-based; settings: for IC50: read-out: IC50 Namalwa (Lymphoma)
Procedure, shortened: as §1

HL-60 (Leukemia) = assay: Proliferation of HL-60; format: cell-based
C1b domain of human PKCθ = target: T1, C1b domain of human PKCθ (Homo sapiens, UniProt Q04759); assay: biochemical; format: binding; settings: 3H-PDBu competition
T1 construct: Genes encoding C1b domains of human PKCα, δ, ε, θ, and PKD1 (PKCμ) were synthesized; made in house; host or cells: E. coli BL21(DE3)
T1 sequence (Q04759 231-281 limits assumed): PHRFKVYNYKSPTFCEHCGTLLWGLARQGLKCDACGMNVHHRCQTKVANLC
Procedure, shortened: (§4)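 Affinity was measured by competition with the radiotracer 3H-PDBu for recombinant human GST-C1b fusion proteins expressed in E. coli BL21(DE3). Incubation ran 10 minutes at 37° C with shaking, then 20 minutes on ice, and filter-trapped 3H-PDBu was counted by scintillation. IC50 values were converted to Ki by Cheng-Prusoff using the experimentally determined Kd for each protein preparation.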

C1b domain of human PKCε = target: T2, C1b domain of human PKCε (Homo sapiens, UniProt Q02156); assay: biochemical; format: binding; settings: 3H-PDBu competition
T2 construct: Genes encoding C1b domains of human PKCα, δ, ε, θ, and PKD1 (PKCμ) were synthesized; made in house; host or cells: E. coli BL21(DE3)
T2 sequence (Q02156 242-292 limits assumed): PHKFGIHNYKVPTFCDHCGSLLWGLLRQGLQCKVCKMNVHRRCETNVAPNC
Procedure, shortened: as §4

Panc2.13 (Pancreatic) = assay: Proliferation of Panc2.13; format: cell-based
Method: as §2, §3

C1b domain of human PKCδ = target: T3, C1b domain of human PKCδ (Homo sapiens, UniProt Q05655); assay: biochemical; format: binding; settings: 3H-PDBu competition
T3 construct: Genes encoding C1b domains of human PKCα, δ, ε, θ, and PKD1 (PKCμ) were synthesized; made in house; host or cells: E. coli BL21(DE3)
T3 sequence (Q05655 230-280 limits assumed): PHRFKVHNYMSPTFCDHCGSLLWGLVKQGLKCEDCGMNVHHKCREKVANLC
Procedure, shortened: as §4

C1b domain of human PKCα = target: T4, C1b domain of human PKCα (Homo sapiens, UniProt P17252); assay: biochemical; format: binding; settings: 3H-PDBu competition
T4 construct: Genes encoding C1b domains of human PKCα, δ, ε, θ, and PKD1 (PKCμ) were synthesized; made in house; host or cells: E. coli BL21(DE3)

[3] = target: T5, C1b domain of human PKD1 (PKCμ) (Homo sapiens, UniProt Q15139); assay: Competitive 3H-PDBu binding assay, C1b domain of PKD1 (PKCμ); settings: 3H-PDBu competition
T5 construct: Genes encoding C1b domains of human PKCα, δ, ε, θ, and PKD1 (PKCμ) were synthesized; made in house; host or cells: E. coli BL21(DE3)
T5 sequence (Q15139 270-320 limits assumed): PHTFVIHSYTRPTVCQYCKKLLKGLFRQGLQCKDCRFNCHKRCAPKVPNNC
Method: Compounds described in this disclosure were tested for binding affinity to C1b domain of PKC isoforms. Compound binding affinity to C1b domain of PKC isoforms was derived from competitive binding assay using radioactive tracer ^3H-PDBu and recombinant GST-C1b or full-length of human PKC proteins based on modified procedures from Methods in Molecular Biology, vol.
Genes encoding C1b domains of human PKCα, δ, ε, θ, and PKD1 (PKCμ) were synthesized and inserted into pGEX-2TK or pGEX-4T1 vectors for expression and production of GST-C1b proteins in E. coli BL21(DE3) via IPTG induction. The target proteins were purified by glutathione sepharose 4B and followed by ion exchange chromatography if needed to achieve purity >70%. Aliquots of the purified proteins were stored at −80 degree for binding assay (storage buffer: 20 mM Tris pH 8.0, 200 mM NaCl, 10% glycerol, 1 mM DTT).
The plate was incubated at 37° C. on a shaker at 300 rpm for 10 minutes and then put on ice for 20 minutes. […] The bottom of the filter plate was sealed and 50 μL of MicroScint-20 (PerkinElmer) cocktail was added to each well. ^3H-PDBu trapped in each well was counted using PerkinElmer MicroBeta2 Reader. Data were analyzed using GraphPad Prism5 with the model “log(inhibitor) vs. response-variable slope” to fit the IC50, and then IC50 was transformed to Ki using Cheng-Prusoff equation: Ki=IC50/(1+added radio ligand/Kd). Kd is the binding affinity of each protein preparation to ^3H-PDBu, determined experimentally.

`CC1=C[C@H]2[C@@]3(O)[C@H](C)C[C@]4(OC(=O)[C@H](N)Cc5ccccc5)[C@H]([C@@H]3C=C(CO)C[C@]2(O)C1=O)C4(C)C` was tested, and the “phosphorylation of PKCμ, PKCδ and Erk1/2” value ([1]; 3 μM) was “induced phosphorylation” and the IC50 (A549 cell line; A549, 96 h) was 1 to 2 µM.

`CC1=C[C@H]2[C@@]3(O)[C@H](C)C[C@]4(OC(=O)[C@@H](N)CCC5CCCCC5)[C@H]([C@@H]3C=C(CO)C[C@]2(O)C1=O)C4(C)C` was tested, and the “ratio (IC50 of K101)/(IC50 of compound) Mino” value (Mino (Lymphoma)) was 33, the IC50 (Mino (Lymphoma)) was 1 to 10 nM and the IC50 (PANC1 cells) was no more than 150 nM. For the same compound, the IC50 (KP-4 (Pancreatic)) was 10 to 30 nM, the EC50 [2] was 0.01 to 0.03 µM and the “ratio (IC50 of K101)/(IC50 of compound) Namalwa” value (Namalwa (Lymphoma)) was 7.42. For the same compound, the IC50 (Namalwa (Lymphoma)) was 1 to 10 nM, the “ratio (IC50 of K101)/(IC50 of compound) HL-60” value (HL-60 (Leukemia)) was 27.7 and the IC50 (HL-60 (Leukemia); Homo sapiens, HL-60, read-out: IC50 HL-60 (Leukemia)) was 10 to 30 nM. For the same compound, the Ki (C1b domain of human PKCθ) was 10 to 30 nM, the Ki (C1b domain of human PKCε) was 10 to 30 nM and the “ratio (IC50 of K101)/(IC50 of compound) Panc2.13” value (Panc2.13 (Pancreatic)) was 20.5. The IC50 (Panc2.13 (Pancreatic); read-out: IC50 Panc2.13 (Pancreatic)) was 30 to 60 nM and the IC50 (A549 cell line; A549, 96 h) was 0.01 to 0.03 µM.

In the case of `CC1=C[C@H]2[C@@]3(O)[C@H](C)C[C@]4(OC(=O)[C@@H](N)C(C)(C)C)[C@H]([C@@H]3C=C(CO)C[C@]2(O)C1=O)C4(C)C`, the IC50 (PANC1 cells) is reported as no more than 1500 nM, the Ki (C1b domain of human PKCδ) is reported as 10 to 30 nM and the Ki (C1b domain of human PKCε) is reported as 60 to 100 nM. It also gave an IC50 (A549 cell line; A549, 96 h) of 0.2 to 0.6 µM.

`CC1=C[C@H]2[C@@]3(O)[C@H](C)C[C@]4(OC(=O)[C@@H](N)CCc5ccc(C(F)(F)F)cc5)[C@H]([C@@H]3C=C(CO)C[C@]2(O)C1=O)C4(C)C` was tested, and the Ki (C1b domain of human PKCα) was 200 to 400 nM, the Ki [3] was less than 5 nM and the Ki (C1b domain of human PKCδ) was 10 to 30 nM. The IC50 (A549 cell line; A549, 96 hours, CellTiter Glo) was 0.1 to 0.2 µM.

`CC(=O)O[C@@]12C[C@@H](C)[C@@]3(O)[C@@H](C=C(CO)C[C@]4(O)C(=O)C(C)=C[C@@H]34)[C@@H]1C2(C)C` [Compound K101, prostratin, reference compound] was tested, and the “phosphorylation of PKCμ, PKCδ and Erk1/2” value ([1]; 1 μM) was “induced high levels of phosphorylation”, the IC50 (Mino (Lymphoma); 96 h) was 100 to 600 nM and the IC50 (PANC1 cells; PANC1, spheres counted after 3-4 weeks) was 5500 nM. For the same compound, the IC50 (KP-4 (Pancreatic)) was 200 to 600 nM, the EC50 [2] was 0.2 to 0.6 µM and the IC50 (Namalwa (Lymphoma); 96 h) was 100 to 600 nM.
